One series has as its target ATR kinase (Homo sapiens (Human), UniProt Q13535). Nature of the series: Screening for in vitro inhibitory activity against ATR kinase. It counts as biochemical. Particulars: 10 μM ATP, 0.1 μM U Light-poly GT substrate. The procedure: A 50 ng/μL ATR stock solution was diluted with a kinase buffer (50 mM HEPES, 10 mM MgCl2, 2 mM DTT, 1 mM EGTA, 0.01% Tween 20), and 6 μL of 1.67×, 0.0835 ng/μL working solution was added to each well (final concentration: 0.05 ng/μL). Different compounds dissolved in DMSO were added to wells using a nanoliter pipettor, such that the final concentrations of the compounds were 1000 nM-0.24 nM and the concentrations in positive wells were 100 nM-0.024 nM (4-fold gradient, 7 concentrations in total). Meanwhile, a blank control well (containing no enzyme) and a negative control well (containing enzyme, with the vehicle DMSO added) were set. After the enzyme had reacted with the compound or vehicle for 30 min, a 5×, 50 μM ATP (final concentration: 10 μM) prepared with the kinase buffer and a 5×, 0.5 μM substrate (final concentration: 0.1 μM, U Light-poly GT) were 1:1 mixed, and the mixture was added to wells at 4 μL/well. After the plate was sealed with a sealing film and the plate was incubated at room temperature for 2 h, 5 μL of 4×, 40 mM EDTA (final concentration: 10 mM) was added to each well. After 5 min of incubation at room temperature, 5 μL of a 4×, 8 nM assay reagent (final concentration: 2 nM, Ep-anti-phospho-tyrosine antibody) was added to each well. The plate was incubated at room temperature for 1 h. Plate reading was performed on a PE instrument (excitation: 320 or 340 nm; emission: 665 nm), and four-parameter fitting and IC50 calculations were performed. The results are shown in Table 1, where A represents IC50<50 nM.

In another series the test system is TMD-8 cells. Nature of the series: Assay for inhibitory activity on TMD-8 cell proliferation (CCK-8). It counts as cell-based. On the procedure:
TMD-8 cells in a good growth state were collected into a centrifuge tube, adjusted to a cell density of 4×10^4 cells/mL, and inoculated onto a 96-well plate (100 μL/well), and the plate was incubated overnight in a cell incubator. Compounds were added using a nanoliter pipettor such that the final concentrations of the compounds were 10,000 nM-4.57 nM (the addition was performed in duplicate). Meanwhile, a control was set. After another 72 h of incubation in the cell incubator, the assay reagent CCK-8 (manufacturer: Dojindo Laboratories; 10 μL/well) was added. After 4 h of incubation in the cell incubator, absorbance was measured at 450 nm on an Envision microplate reader. A four-parameter analysis was performed, a dose-response curve was fit, and IC50 was calculated. The results are shown in Table 2, where A represents IC50≤200 nM.

A short description of series [1]: In vitro liver microsomal stability. It counts as in vitro ADME. To be noted: human liver microsomes, NADPH, 37° C. The procedure: A 200-μL final incubation system contained 20 μL of liver microsomes (protein concentration: 5 mg/mL), 20 μL of NADPH+MgCl2, 2 μL of a substrate, and 158 μL of PBS buffer. The proportion of the organic solvent was 1%. The assay was performed in duplicate (0.2 mL each) for each species. A 180-μL mixture of substrate and enzyme was prepared in each tube. After the mixture and NADPH were pre-incubated at 37° C. for 5 min, 20 μL of NADPH+MgCl2 was added and mixed. 50-μL samples were taken at 0, 15 and 60 min, and the reactions were stopped using ice-cold acetonitrile containing an internal standard.
50-μL incubated samples were taken, and 300 μL of internal standard-containing acetonitrile was added for precipitation. After 5 min of vortexing and shaking, centrifugation (13,000 rpm, 20° C.) was performed for 10 min. 80 μL of the supernatant was added to a 96-well plate and diluted with 80 μL of ultrapure water, and 1 μL of the dilution was injected for LC-MS/MS analysis.
In general terms: Liver microsomes are vesicles of endoplasmic reticulum, rich in cytochrome P450 enzymes.

Series [2] is described as follows: Pharmacokinetic evaluation of compounds in mice. It counts as in vivo. Particulars: ICR mice. On the procedure:
ICR mice, weighing 18-22 g, were randomized into 4 groups of 9 after 3-5 days of acclimatization, and were administered intragastrically (IG) a test compound at a dose of 10 mg/kg and intravenously (IV) a test compound at a dose of 1 mg/kg.
The test animals (ICR mice) were fasted for 12 h before the administration and given food 4 h after the administration, and they were given ad libitum access to water before, during and after the experiment.
Orbital blood samples of about 0.1 mL were collected at 15 min, 30 min, 1 h, 2 h, 3 h, 4 h, 6 h, 8 h, 10 h and 24 h after the intragastric administration. Orbital blood samples of about 0.1 mL were collected at 5 min, 10 min, 30 min, 1 h, 2 h, 4 h, 6 h, 8 h, 10 h and 24 h after the intravenous administration. The blood sample collection was performed at 3-4 time points for each mouse, 3 mice/per time point. The collected whole blood was placed in EDTA-K2-containing centrifuge tubes and stored at 4° C., and, within 1 h, was centrifuged at 4° C. at 4000 rpm for 10 min to separate plasma. All plasma samples were collected and immediately stored at −20° C. for testing. 30 μL of a plasma sample to be tested and a standard-curve sample were collected, and 300 μL of an acetonitrile solution containing an internal standard (20 ng/mL diazepam) was added and well mixed by 5 min of shaking. The mixture was centrifuged at 13,000 rpm for 10 min, and 80 µL of the supernatant was collected and diluted with 80 μL of ultrapure water. After well mixing, 2 μL of the dilution was collected for liquid chromatography-mass spectrometry analysis, and pharmacokinetic parameters were calculated.

[3] abbreviates: Homo sapiens, TMD8, 72 h incubation.
[4] abbreviates: plasma, IG 10 mg/kg / IV 1 mg/kg study.

Chain of ATR kinase (Q13535 whole entry): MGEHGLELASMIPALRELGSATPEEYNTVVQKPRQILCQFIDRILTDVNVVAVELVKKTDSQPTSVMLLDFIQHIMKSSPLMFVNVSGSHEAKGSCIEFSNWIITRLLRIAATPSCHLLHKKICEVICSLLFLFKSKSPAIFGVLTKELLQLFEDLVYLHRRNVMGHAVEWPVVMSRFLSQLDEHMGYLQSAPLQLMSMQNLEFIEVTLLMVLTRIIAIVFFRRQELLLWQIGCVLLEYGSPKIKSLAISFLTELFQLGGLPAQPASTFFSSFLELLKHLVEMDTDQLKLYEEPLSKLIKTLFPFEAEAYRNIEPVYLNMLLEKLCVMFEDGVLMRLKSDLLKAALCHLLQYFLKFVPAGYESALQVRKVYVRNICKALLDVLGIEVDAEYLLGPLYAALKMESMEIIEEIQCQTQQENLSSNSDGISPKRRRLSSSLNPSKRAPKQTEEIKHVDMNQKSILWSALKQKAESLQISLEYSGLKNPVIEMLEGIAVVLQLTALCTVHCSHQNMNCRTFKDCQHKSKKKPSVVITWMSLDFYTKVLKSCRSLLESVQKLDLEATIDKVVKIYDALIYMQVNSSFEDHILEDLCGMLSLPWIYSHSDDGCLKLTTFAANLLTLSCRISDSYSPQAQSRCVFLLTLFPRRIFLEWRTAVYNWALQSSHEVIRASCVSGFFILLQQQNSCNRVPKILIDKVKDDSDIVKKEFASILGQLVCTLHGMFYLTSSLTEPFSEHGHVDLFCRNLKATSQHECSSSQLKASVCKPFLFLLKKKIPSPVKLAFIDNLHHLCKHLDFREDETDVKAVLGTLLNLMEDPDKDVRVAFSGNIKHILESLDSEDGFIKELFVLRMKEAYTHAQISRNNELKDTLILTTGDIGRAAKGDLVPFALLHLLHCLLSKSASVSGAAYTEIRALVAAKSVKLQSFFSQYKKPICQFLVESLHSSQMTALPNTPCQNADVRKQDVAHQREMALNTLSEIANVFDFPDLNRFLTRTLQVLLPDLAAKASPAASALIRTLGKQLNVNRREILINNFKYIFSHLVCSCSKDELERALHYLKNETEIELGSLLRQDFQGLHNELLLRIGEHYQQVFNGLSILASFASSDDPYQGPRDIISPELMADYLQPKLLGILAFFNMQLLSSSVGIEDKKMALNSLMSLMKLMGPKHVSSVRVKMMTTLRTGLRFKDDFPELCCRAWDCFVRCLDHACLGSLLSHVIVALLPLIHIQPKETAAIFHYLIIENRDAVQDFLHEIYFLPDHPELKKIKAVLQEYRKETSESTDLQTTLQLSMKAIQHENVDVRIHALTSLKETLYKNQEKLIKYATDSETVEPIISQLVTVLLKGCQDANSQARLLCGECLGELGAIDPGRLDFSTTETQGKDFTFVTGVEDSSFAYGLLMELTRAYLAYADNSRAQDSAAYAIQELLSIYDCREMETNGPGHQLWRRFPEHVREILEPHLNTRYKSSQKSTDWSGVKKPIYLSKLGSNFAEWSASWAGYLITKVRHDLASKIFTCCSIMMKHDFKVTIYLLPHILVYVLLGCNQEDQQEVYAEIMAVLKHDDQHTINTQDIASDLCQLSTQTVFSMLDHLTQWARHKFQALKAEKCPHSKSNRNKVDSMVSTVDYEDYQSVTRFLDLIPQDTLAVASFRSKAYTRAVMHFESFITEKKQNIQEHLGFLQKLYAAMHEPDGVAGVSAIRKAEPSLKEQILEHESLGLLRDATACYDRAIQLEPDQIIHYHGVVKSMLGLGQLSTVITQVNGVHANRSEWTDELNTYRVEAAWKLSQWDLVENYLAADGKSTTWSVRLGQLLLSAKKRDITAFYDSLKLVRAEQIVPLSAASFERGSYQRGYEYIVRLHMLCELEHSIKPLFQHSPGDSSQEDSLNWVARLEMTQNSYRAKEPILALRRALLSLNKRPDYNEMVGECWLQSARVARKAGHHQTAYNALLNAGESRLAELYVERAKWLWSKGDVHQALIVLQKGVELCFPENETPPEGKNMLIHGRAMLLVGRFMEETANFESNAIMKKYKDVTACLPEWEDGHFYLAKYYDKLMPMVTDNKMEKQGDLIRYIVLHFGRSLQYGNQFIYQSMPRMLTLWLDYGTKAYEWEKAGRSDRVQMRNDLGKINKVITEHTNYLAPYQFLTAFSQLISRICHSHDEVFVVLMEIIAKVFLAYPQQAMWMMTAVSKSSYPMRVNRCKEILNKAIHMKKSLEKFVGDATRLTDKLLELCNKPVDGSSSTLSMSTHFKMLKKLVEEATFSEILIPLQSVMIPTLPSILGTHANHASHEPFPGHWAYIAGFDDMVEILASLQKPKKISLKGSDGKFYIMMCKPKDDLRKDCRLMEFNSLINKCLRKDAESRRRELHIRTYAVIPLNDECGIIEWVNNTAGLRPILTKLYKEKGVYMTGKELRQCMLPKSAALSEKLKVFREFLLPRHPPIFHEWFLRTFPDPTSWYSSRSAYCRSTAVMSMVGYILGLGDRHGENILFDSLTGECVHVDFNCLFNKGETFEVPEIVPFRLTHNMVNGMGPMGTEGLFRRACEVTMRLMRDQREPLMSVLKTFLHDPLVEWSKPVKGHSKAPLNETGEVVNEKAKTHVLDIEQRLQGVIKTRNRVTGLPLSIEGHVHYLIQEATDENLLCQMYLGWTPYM
Chain of ATR kinase (Q8WXE1 whole entry partner): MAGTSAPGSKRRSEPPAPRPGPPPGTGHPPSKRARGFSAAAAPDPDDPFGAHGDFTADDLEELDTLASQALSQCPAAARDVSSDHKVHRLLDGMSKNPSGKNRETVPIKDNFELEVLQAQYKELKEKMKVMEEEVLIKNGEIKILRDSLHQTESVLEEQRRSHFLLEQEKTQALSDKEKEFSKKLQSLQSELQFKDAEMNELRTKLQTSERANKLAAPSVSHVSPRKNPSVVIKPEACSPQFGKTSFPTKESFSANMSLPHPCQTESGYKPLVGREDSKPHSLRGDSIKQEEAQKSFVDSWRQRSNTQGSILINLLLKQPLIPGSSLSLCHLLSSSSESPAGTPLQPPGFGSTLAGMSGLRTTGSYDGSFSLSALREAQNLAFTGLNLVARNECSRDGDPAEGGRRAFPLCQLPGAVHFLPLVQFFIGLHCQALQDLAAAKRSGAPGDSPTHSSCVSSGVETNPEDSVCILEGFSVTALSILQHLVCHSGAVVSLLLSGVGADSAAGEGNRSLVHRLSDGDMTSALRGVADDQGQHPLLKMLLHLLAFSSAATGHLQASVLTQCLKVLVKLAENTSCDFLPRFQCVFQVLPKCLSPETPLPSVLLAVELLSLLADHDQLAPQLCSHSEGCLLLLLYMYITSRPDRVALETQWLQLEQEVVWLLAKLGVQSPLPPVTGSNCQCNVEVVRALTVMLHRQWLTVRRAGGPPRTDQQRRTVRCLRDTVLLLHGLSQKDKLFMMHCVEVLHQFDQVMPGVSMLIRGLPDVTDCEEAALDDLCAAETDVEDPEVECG

For the molecule `C[C@@H]1COCCN1c1cc(N=[S@@](C)(=O)c2ccc(F)cc2)c2cnn(-c3ccn[nH]3)c2n1` (single isomer, unassigned) [Compound 14-A], the IC50 – broadly, the concentration needed to halve the response being measured – against ATR kinase was under 50 nM.

Regarding `C[C@@H]1COCCN1c1cc(N=[S@@](C)(=O)C2CCCC2)c2cnn(-c3ccn[nH]3)c2n1` (single isomer, unassigned) [Compound 15-A], the IC50 at ATR kinase is under 50 nM; in the series on TMD-8 cells (setting [3]), at most 200 nM.

Turning to `C[C@@H]1COCCN1c1cc(N=[S@](C)(=O)C2CCC(F)(F)CC2)c2cnn(-c3ccn[nH]3)c2n1` (single isomer, unassigned) [Compound 16-A], the IC50 against ATR kinase was under 50 nM.

`C[C@@H]1COCCN1c1cc(N=S(C)(C)=O)c2cnn(-c3ccn[nH]3)c2n1` [Compound 1]: in series [1], the “Human liver microsome (Residual % at 60 min)” value was 102.05%. Also, the IC50 in the series on TMD-8 cells (setting [3]) was at most 200 nM.

Regarding `CCS(=O)(CC)=Nc1cc(N2CCOC[C@H]2C)nc2c1cnn2-c1ccn[nH]1` [Compound 2], in series [1], the “Human liver microsome (Residual % at 60 min)” value is 85.89%. The molecule also came in with an IC50 with TMD-8 cells (setting [3]) of at most 200 nM.

`C[C@@H]1COCCN1c1cc(N=S2(=O)CCC2)c2cnn(-c3ccn[nH]3)c2n1` [Compound 3]: in series [1], the “Human liver microsome (Residual % at 60 min)” value is on record as 106.47%. Besides, in the series with TMD-8 cells (setting [3]), the IC50 was at most 200 nM.

Regarding `C[C@@H]1COCCN1c1cc(N=S2(=O)CCCC2)c2cnn(-c3ccn[nH]3)c2n1` [Compound 4], the “Human liver microsome (Residual % at 60 min)” value in series [1] is listed as 96.49%. Further, the IC50 with TMD-8 cells (setting [3]) is at most 200 nM.

Regarding `C[C@@H]1COCCN1c1cc(N=S2(=O)CCCCC2)c2cnn(-c3ccn[nH]3)c2n1` [Compound 5], the IC50 with TMD-8 cells (setting [3]) was at most 200 nM.

`C[C@@H]1COCCN1c1cc(N=S2(=O)CCOCC2)c2cnn(-c3ccn[nH]3)c2n1` [Compound 6]: in series [1], the “Human liver microsome (Residual % at 60 min)” value is 94.62%.

For `C[C@@H]1COCCN1c1cc(N=[S@](C)(=O)C2CC2)c2cnn(-c3ccn[nH]3)c2n1` [Compound 10-A], the “IG half-life t1/2” value in series [2] (intragastric 10 mg/kg) stood at 1.3 h. For the same molecule, in series [2] (setting [4]), the “Area under plasma concentration-time curve AUC0-last” value came out at 13943 ng·h/mL and the “Peak concentration Cmax” value is given as 4888 ng/mL. Besides, the “Tissue distribution Vd” value in series [2] (IG 10 mg/kg / IV 1 mg/kg study) is 0.68 L/kg. In series [2] (IG 10 mg/kg vs IV 1 mg/kg), the “Absolute bioavailability F” value was determined as 66%. In addition, in series [1], the “Human liver microsome (Residual % at 60 min)” value turned out to be 95.39%. For the same molecule, at ATR kinase, the IC50 was under 50 nM.

For the molecule `Cc1cc(-n2ncc3c(N=S(C)(C)=O)cc(N4CCOC[C@H]4C)nc32)[nH]n1` [Compound 13], in series [1], the “Human liver microsome (Residual % at 60 min)” value amounted to 108.36%. The IC50 at ATR kinase was under 50 nM.

In the case of `C[C@@H]1COCCN1c1cc(N=[S@@](C)(=O)C2CCCC2)c2cnn(-c3ccn[nH]3)c2n1` [Compound 15-B], the IC50 in the series with TMD-8 cells (setting [3]) was at most 200 nM.

As for `C[C@@H]1COCCN1c1cc(N=S(C)(=O)C(C)(C)C)c2cnn(-c3ccn[nH]3)c2n1` (some centres unmarked) [Compound 17], in the series on TMD-8 cells (setting [3]), the IC50 was at most 200 nM.

In the case of `Cc1cc(-n2ncc3c(N=[S@@](C)(=O)C4CC4)cc(N4CCOC[C@H]4C)nc32)[nH]n1` [Compound 19-A], in series [2] (intragastric 10 mg/kg), the “IG half-life t1/2” value stood at 1.16 h. Also, in series [2] (setting [4]), the “Area under plasma concentration-time curve AUC0-last” value stood at 5403 ng·h/mL. Also, in series [2] (setting [4]), the “Peak concentration Cmax” value worked out at 2948 ng/mL. The “Tissue distribution Vd” value in series [2] (IG 10 mg/kg / IV 1 mg/kg study) is reported as 4.58 L/kg. Moreover, in series [2] (IG 10 mg/kg vs IV 1 mg/kg), the “Absolute bioavailability F” value turned out to be 88%. Besides, the IC50 is under 50 nM on ATR kinase and at most 200 nM with TMD-8 cells (72 h incubation).

In the case of `Cc1nn(-c2ccn[nH]2)c2nc(N3CCOC[C@H]3C)cc(N=S(C)(C)=O)c12` [Compound 20], the bioavailability – broadly, dose-corrected exposure relative to a reference, in per cent – in series [2] (mouse, plasma, oral, IG 10 mg/kg vs IV 1 mg/kg, read-out: Absolute bioavailability F) was 74%. The half-life in series [2] (mouse, plasma, po, intragastric 10 mg/kg, read-out: IG half-life t1/2 (converted)) is 1.93 h. In addition, in series [2] (mouse, plasma, IG 10 mg/kg / IV 1 mg/kg study, read-out: Tissue distribution Vd), the Vd – broadly, the apparent volume that relates the amount in the body to the concentration in plasma or blood – was 1.04 L/kg. Besides, in series [2] (mouse, plasma, IG 10 mg/kg / IV 1 mg/kg study, read-out: Area under plasma concentration-time curve AUC0-last), the AUC(0-t) came out at 14600 ng·h/mL. Besides, the Cmax in series [2] (mouse, plasma, IG 10 mg/kg / IV 1 mg/kg study, read-out: Peak concentration Cmax) stood at 6520 ng/mL. This molecule came in with an IC50 with TMD-8 cells (setting [3]) of at most 200 nM.

`CC(C)Cc1nn(-c2cc[nH]n2)c2nc(N3CCOC[C@H]3C)cc(N=S(C)(C)=O)c12` [Compound 21] returned an IC50 in the series on TMD-8 cells (setting [3]) of at most 200 nM.

Consider `C[C@@H]1COCCN1c1cc(N=S(C)(C)=O)c2c(C3CC3)nn(-c3ccn[nH]3)c2n1` [Compound 22], for which, in the series with TMD-8 cells (setting [3]), the IC50 was at most 200 nM.

For the molecule `C[C@@H]1COCCN1c1cc(N=S(C)(C)=O)c2c(C(F)(F)F)nn(-c3ccn[nH]3)c2n1` [Compound 23], the IC50 with TMD-8 cells (setting [3]) is at most 200 nM.

For the molecule `C[C@@H]1COCCN1c1cc(N=S(C)(C)=O)c2c(CCC(F)(F)F)nn(-c3ccn[nH]3)c2n1` [Compound 24], in the series on TMD-8 cells (setting [3]), the IC50 was at most 200 nM.

`C[C@@H]1COCCN1c1cc(N=S(C)(C)=O)c2c(C(C)(C)C)nn(-c3cc[nH]n3)c2n1` [Compound 25] displayed an IC50 in the series with TMD-8 cells (setting [3]) of at most 200 nM.

In the case of `C[C@@H]1COCCN1c1cc(N=S(C)(C)=O)c2c(C#CC3CC3)nn(-c3cc[nH]n3)c2n1` [Compound 26], the IC50 in the series with TMD-8 cells (setting [3]) is at most 200 nM.

These data come from US20250026750A1, “SULFOXIMINE-CONTAINING ATR INHIBITOR COMPOUND” (Chia Tai Tianqing Pharmaceutical Group Co., Ltd., priority 2021, published 2025).
